Results: patent US20210214734A1, “METHODS FOR SELECTIVELY INHIBITING MOLECULAR CHAPERONE CLIENTS AND COMPOSITIONS FOR USE THEREOF” (Research Foundation for the State University of New York, priority 2020, published 2021)
Where no end group is shown, it is not given here. [ ]: non-standard residue; d: D form. Phe(4-F) = N[C@@H](Cc1ccc(F)cc1)C(=O)O

Experiments:
[1] = target: Human Serum Albumin (HSA) (Homo sapiens, UniProt P02768); assay: 19F NMR control for non-specific binding to HSA; settings: 40 mM A01, A02 with 10 mM HSA
Protocol: (§1) All the NMR experiments have been recorded at 298° K with a Bruker FT NMR Avance III 600-MHz spectrometer equipped with a 5-mm CryoProbe™ QCI^1H/^19F-^13C/^15N-D quadruple resonance, a shielded z-gradient coil, and the automatic sample handling system such as a SAMPLEJET™ brand sampling system with temperature control.
(§2) ^19F NMR experiments are a well-recognized approach to study the interaction between small molecules or peptides and proteins. […] This is due to the large dynamic range defined as the difference of the NMR measured response in the free and protein-bound states. ^19F R2 filter NMR experiments are among the most sensitive techniques for weak binding detection. See Dalvit et al., Journal of American Chemical Society, 125, 7696-7703 (2003). The transverse relaxation rate R2 is a very sensitive parameter for these studies, due to the large Chemical Shift Anisotropy (CSA) of ^19F nucleus and to the large exchange contribution See Dalvit et al., Journal of American Chemical Society, 125, 7696-7703 (2003); the compounds/peptides that interact with the receptor will show a broadening and intensity reduction in their ^19F NMR signal in presence of the protein
(§3) The 5 mM stock solution peptides were prepared in 100% in DMSOd6. Solubility and purity of the peptides in PBS buffer pH 7.4, 10% D2O (for the lock signal) were checked by ^19F and ^1H NMR spectroscopy. 1D ^19F NMR experiments were recorded with proton decoupling with the Waltz-16 scheme during the acquisition period with an acquisition time of 0.95 s, a relaxation delay of 30 s. whereas 1D version of the NOESY (nuclear Overhauser effect spectroscopy) pulse sequence with H2O signal presaturation, a mixing time of 10 ms and a relaxation delay of 30 s was used for ^1H NMR experiments.
(§4) For the binding studies R2 filter experiments were recorded with the Carr-Purcell-Meibom-Gill scheme with a time interval of 23.5 ms between the 180° pulses with a loop of 2, an acquisition time of 0.95 s a D1 of 5 s and a number of scans of 512. All the ^19F chemical shifts are referenced to the CFCl3 signal in water.

full length human Hsp90 = assay: 19F NMR R2 filter binding to Hsp90; design: 19F NMR signal change in presence of Hsp90 (binding): dose or concentration left out as unconfirmed; settings: for 19F NMR signal change in presence of Hsp90 (binding): 19F R2 filter, peptides tested individually, A01
Protocol: as §1, §2, §3, §4

786-O cells = assay: Apoptosis by cleaved caspase-3 immunoblot in 786-O cells; assay type: cell-based; settings: 786-O clear cell renal cell carcinoma cell line
Protocol: (§5) Human embryonic kidney (HEK293) and 786-O cells were acquired from the American Type Culture Collection (ATCC). HEK293 cells were grown in Dulbecco's Modified Eagle Medium (DMEM, Millipore-Sigma) and 786-O cells were grown in Roswell Park Memorial Institute (RPMI-1640, Millipore-Sigma) medium supplemented with 10% fetal bovine serum (FBS, Millipore-Sigma) in a CellQ incubator (Panasonic Healthcare) at 37° C. in 5% CO2.
(§6) Cultured cells were seeded 24 h prior to treatment. Peptides were added to cells at 50% confluency at the indicated concentrations and incubated for 24 h, followed by protein extraction as described below.
(§7) Protein extraction from mammalian cells was carried out using methods previously described. See Woodford et al., Cell Reports, 14, 872-884 (2016). For immunoprecipitation, protein lysates were incubated with Hsp90 antibody for 2 h followed by incubation with protein G agarose (Qiagen) for 2 h at 4° C. Immunopellets were washed 4 times with fresh lysis buffer (20 mM Tris (pH7.4), 100 mM NaCl, 1 mM MgCl2, 0.1% NP40, protease inhibitor cocktail (Roche), and PhosSTOP (Roche)) and eluted with 5× Laemmli buffer. Precipitated proteins were separated by SDS-PAGE and transferred to nitrocellulose membranes. Co-immunoprecipitated proteins were detected by immunoblotting with the indicated antibodies, diluted in 5% non-fat dry milk reconstituted in TBST.

Aha1-Hsp90 complex = assay: Hsp90 immunoprecipitation, Aha1-Hsp90 complex in HEK293 cells; assay type: cell-based, human; settings: 10 μM, 36 hours
Protocol: as §5
(§8) Cultured cells were seeded 24 h prior to treatment. […]
as §7

Cdk4 = assay: Immunoblot of unrelated client Cdk4 in HEK293 cells; assay type: cell-based, human; settings: 10 μM, 36 hours, selectivity control
Protocol: as §5, §8, §7

c-Abl-Hsp90 interaction = assay: Hsp90 immunoprecipitation, c-Abl association in HEK293 cells; assay type: cell-based, human; settings: 10 μM, 36 hours, IP of endogenous Hsp90
Protocol: as §5, §8, §7

c-Src = assay: Immunoblot of unrelated client c-Src in HEK293 cells; assay type: cell-based, human; settings: 10 μM, 36 hours, selectivity control
Protocol: as §5, §8, §7

Hsp90α-FLAG = Hsp90α-FLAG (Homo sapiens, UniProt P07900); assay: Biotinylated peptide streptavidin pulldown of Hsp90α; assay type: binding; settings: Hsp90α vs Hsp90β; biotinylated peptide pulldown
Protocol: Total cell lysates prepared as described above were incubated with the indicated amounts of biotinylated peptide at 4° C. for 1 h. Streptavidin agarose beads (ThermoScientific) were added and incubated 1 additional hour with gentle rotation. Bound Hsp90 was detected by immunoblotting as described herein.

Akt = assay: Immunoblot of unrelated client Akt in HEK293 cells; assay type: cell-based, human; settings: 10 μM, 36 hours, selectivity control
Protocol: as §5, §8, §7

c-Abl = c-Abl protein level by immunoblot in treated HEK293 cells; assay type: cell-based, human; settings: 10 μM A01 or A02 with and without TAT, 36 hours
Protocol: as §5, §8, §7

Cdc37 = target: T1, Cdc37 (Homo sapiens, UniProt Q16543); assay: 19F NMR R2 filter binding to Cdc37; design: dose or concentration left out as unconfirmed
T1 sequence (Q16543 1-378): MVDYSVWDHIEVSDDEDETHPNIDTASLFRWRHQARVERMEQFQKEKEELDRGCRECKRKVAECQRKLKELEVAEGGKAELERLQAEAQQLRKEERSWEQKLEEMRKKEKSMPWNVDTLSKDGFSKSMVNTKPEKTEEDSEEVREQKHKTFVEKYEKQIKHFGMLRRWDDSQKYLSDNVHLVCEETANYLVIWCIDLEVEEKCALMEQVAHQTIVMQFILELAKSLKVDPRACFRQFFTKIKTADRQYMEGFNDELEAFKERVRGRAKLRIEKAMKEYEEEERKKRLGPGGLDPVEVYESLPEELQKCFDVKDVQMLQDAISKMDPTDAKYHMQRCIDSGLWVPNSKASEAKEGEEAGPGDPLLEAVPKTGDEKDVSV
Protocol: as §1, §2, §3, §4

GR:Hsp90 = assay: GR dissociation from Hsp90 in 786-O cells; assay type: cell-based
Protocol: as §5, §6, §7

## GYSTKPQLAGGGNVTAPTPQGF(F)QHSGS (GYSTKPQLAGGGNVTAPTPQG[Phe(4-F)]QHSGS) [B-Raf-01]
[1]
  binding interaction with HSA by 19F NMR: no interactions were detected
[1]; listed as Braf01-pep
  binding interaction with HSA by 19F NMR: do not interact with HSA
Full length human Hsp90
  19F NMR signal change in presence of Hsp90 (binding): no or very weak interaction

## GEMGKGGKGRVPYPGMVNREVLDQVERGF(F)RM (GEMGKGGKGRVPYPGMVNREVLDQVERG[Phe(4-F)]RM) [c-Src02, c-Src mimic peptide]
786-O cells
  apoptosis (elevation of cleaved caspase-3): except c-Src02, induced apoptosis

## F(F)GGSPYPGIDLSQVYELLEK ([Phe(4-F)]GGSPYPGIDLSQVYELLEK) [A02]
[1]
  binding interaction with HSA by 19F NMR: neither A01 nor A02 showed binding interaction with HSA
[1]; listed as AblO2
  binding interaction with HSA by 19F NMR: do not interact with HSA
Full length human Hsp90; 19F NMR, peptides mixed
  binding to Hsp90 when A01 and A02 are mixed: continue to bind to Hsp90 even when they are mixed
Full length human Hsp90
  19F NMR signal change in presence of Hsp90 (binding): decrease in the presence of Hsp90, indicating peptide-protein binding
Aha1-Hsp90 complex
  Aha1-Hsp90 complex formation: decreased Aha1-Hsp90 complex formation
Cdk4
  Cdk4 stability or activity: neither the related kinase c-Src nor the client kinases Cdk4 or Akt showed a defect in stability or activity
c-Abl-Hsp90 interaction
  dissociation of c-Abl from Hsp90: dissociation of c-Abl from Hsp90
c-Src
  c-Src stability or activity: neither the related kinase c-Src nor the client kinases Cdk4 or Akt showed a defect in stability or activity
Hsp90α-FLAG
  Hsp90 isoform specificity: neither peptide demonstrates isoform specificity
Akt
  Akt stability or activity: neither the related kinase c-Src nor the client kinases Cdk4 or Akt showed a defect in stability or activity
c-Abl
  c-Abl protein levels: decrease of c-Abl protein levels

## FGTVYKGKWGGGGF(F)STKPQLAGGGNVTAPTPQ (FGTVYKGKWGGGG[Phe(4-F)]STKPQLAGGGNVTAPTPQ) [B-Raf-02]
[1]
  binding interaction with HSA by 19F NMR: no interactions were detected
[1]; listed as Braf02-pep
  binding interaction with HSA by 19F NMR: do not interact with HSA
Full length human Hsp90
  19F NMR signal change in presence of Hsp90 (binding): no or very weak interaction
Cdc37
  binding to Cdc37 by 19F NMR: bound to Cdc37

## TLPCGGTWRIMTGIE F(F)PEMLA (TLPCGGTWRIMTGIE[Phe(4-F)]PEMLA) [GR-01, glucocorticoid receptor mimic peptide]
GR:Hsp90
  GR dissociation from Hsp90: showed GR dissociation from Hsp90
